Laboratory results published in ChEMBL document CHEMBL1909046, “DrugMatrix in vitro pharmacology data”.

Experiments:
[1] = target: Voltage-gated inwardly rectifying potassium channel KCNH2 (Homo sapiens, UniProt Q12809); settings: hek293; note: in other assays of this panel Not Active means under 50% inhibition at 10 µM
Leukotriene C4 synthase = target: T1, Leukotriene C4 synthase (Cavia porcellus, UniProt A6XA80); assay: biochemical; format: tissue-based, Lung;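 note: enzyme inhibition assay of leukotriene C4 synthase, using LTA4 as the substrate; in other assays of this panel Not Active means under 50% inhibition at 10 µM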
T1 sequence (A6XA80 whole entry): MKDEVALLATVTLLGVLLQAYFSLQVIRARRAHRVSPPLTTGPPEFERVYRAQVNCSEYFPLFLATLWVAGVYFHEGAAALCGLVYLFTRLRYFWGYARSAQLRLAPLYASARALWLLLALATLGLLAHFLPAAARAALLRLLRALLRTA

[2] = DRUGMATRIX: Serotonin (5-Hydroxytryptamine) 5-HT3 radioligand binding (ligand: [3H] GR-65630); format: cell membranes, Membrane; settings: hek293; Not Active = under 50% inhibition at 10 µM
[3] = DRUGMATRIX: Calcium Channel Type L, Dihydropyridine radioligand binding (ligand: [3H] Nitrendipine); format: cell membranes, Rattus norvegicus, Wistar, Cerebral cortex, Membrane; settings: Not Active = under 50% inhibition at 10 µM
[4] = target: T2, 5-hydroxytryptamine receptor 1A (Rattus norvegicus, UniProt P19327); format: cell membranes, CHO-K1, Membrane; settings: cho-k1; note: in other assays of this panel Not Active means under 50% inhibition at 10 µM
T2 sequence (P19327 whole entry): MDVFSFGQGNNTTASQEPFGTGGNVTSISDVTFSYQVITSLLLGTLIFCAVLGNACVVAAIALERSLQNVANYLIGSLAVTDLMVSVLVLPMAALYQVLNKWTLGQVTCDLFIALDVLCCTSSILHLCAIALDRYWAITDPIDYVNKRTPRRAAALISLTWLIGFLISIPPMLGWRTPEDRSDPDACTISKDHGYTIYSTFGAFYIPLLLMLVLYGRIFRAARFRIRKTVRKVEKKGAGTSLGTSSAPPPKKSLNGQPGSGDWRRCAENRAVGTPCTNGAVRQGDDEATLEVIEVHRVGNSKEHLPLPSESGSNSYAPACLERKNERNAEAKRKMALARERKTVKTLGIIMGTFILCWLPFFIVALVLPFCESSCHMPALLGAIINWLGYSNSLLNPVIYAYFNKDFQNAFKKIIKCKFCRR

[5] = DRUGMATRIX: Calcium Channel Type L, Benzothiazepine radioligand binding (ligand: [3H] Diltiazem); format: cell membranes, Rattus norvegicus, Wistar, Brain, Membrane; settings: Not Active = under 50% inhibition at 10 µM
[6] = target: T3, Alpha-1B adrenergic receptor (Rattus norvegicus, UniProt P15823); assay: DRUGMATRIX: Alpha-1B adrenergic receptor radioligand binding (ligand: prazosin); format: cell membranes, Wistar, Liver, Membrane; settings: Not Active = under 50% inhibition at 10 µM
T3 sequence (P15823 whole entry): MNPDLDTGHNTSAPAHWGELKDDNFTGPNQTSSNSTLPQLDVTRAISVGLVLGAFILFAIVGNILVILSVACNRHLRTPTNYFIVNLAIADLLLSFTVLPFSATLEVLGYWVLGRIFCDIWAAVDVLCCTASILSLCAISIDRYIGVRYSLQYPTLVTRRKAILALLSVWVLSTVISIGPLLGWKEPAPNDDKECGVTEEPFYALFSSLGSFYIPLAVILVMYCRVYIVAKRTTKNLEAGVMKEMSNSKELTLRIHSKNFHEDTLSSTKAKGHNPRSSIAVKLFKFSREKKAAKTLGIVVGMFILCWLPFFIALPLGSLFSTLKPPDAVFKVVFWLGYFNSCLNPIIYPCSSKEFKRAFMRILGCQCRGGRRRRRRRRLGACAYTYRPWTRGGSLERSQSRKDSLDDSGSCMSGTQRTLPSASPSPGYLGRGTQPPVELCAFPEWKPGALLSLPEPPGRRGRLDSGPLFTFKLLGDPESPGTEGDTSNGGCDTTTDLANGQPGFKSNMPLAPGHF

[7] = target: cGMP-specific 3',5'-cyclic phosphodiesterase (Homo sapiens, UniProt O76074); assay: DRUGMATRIX: Phosphodiesterase PDE5 enzyme inhibition (substrate: [3H]cGMP + cGMP); format: tissue-based, Platelet; settings: platelet; Not Active = under 50% inhibition at 10 µM
[8] = DRUGMATRIX: GABAA, Chloride Channel, TBOB radioligand binding (ligand: [3H] TBOB); format: cell membranes, Rattus norvegicus, Wistar, Cerebral cortex, Membrane; settings: Not Active = under 50% inhibition at 10 µM
Vasopressin V1a receptor = Vasopressin V1a receptor (Homo sapiens, UniProt P37288); format: cell membranes, Membrane; settings: hek293; note: in other assays of this panel Not Active means under 50% inhibition at 10 µM
Vasopressin V1a receptor, sequence (P37288 whole entry): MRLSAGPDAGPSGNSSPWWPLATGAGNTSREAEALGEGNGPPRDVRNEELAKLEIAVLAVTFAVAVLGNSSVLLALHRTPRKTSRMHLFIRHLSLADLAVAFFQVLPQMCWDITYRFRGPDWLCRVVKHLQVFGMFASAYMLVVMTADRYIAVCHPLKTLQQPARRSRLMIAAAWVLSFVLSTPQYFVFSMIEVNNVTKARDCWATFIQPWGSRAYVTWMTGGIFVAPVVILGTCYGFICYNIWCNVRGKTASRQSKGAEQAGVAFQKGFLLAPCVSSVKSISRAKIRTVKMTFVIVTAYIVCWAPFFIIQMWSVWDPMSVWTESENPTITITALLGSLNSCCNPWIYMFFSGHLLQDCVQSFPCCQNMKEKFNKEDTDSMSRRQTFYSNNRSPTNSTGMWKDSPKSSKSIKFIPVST

[9] = DRUGMATRIX: Atrial Natriuretic Factor (ANF) radioligand binding (ligand: [125I] ANF (rat)); format: cell membranes, Cavia porcellus, Dunkin-Hartley, Adrenal gland, Membrane; settings: Not Active = under 50% inhibition at 10 µM
[10] = target: C-C chemokine receptor type 2 (Homo sapiens, UniProt P41597); format: cell membranes, CHO-K1, Membrane; settings: cho-k1; note: in other assays of this panel Not Active means under 50% inhibition at 10 µM
C-C chemokine receptor type 2, sequence (P41597 whole entry): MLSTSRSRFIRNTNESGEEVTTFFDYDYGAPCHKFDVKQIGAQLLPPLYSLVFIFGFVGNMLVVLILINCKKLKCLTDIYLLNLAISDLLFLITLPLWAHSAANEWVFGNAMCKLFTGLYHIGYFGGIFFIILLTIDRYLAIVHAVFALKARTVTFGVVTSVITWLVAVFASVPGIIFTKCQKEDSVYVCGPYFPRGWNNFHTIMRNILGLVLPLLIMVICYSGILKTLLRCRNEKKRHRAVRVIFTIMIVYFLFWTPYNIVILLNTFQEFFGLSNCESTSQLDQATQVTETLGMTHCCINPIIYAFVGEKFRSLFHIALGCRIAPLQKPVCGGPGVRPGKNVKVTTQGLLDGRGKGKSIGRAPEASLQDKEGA

Cytochrome P450 3A4 = Cytochrome P450 3A4 (Homo sapiens, UniProt P08684); settings: bti-tn-5b1-4; note: in other assays of this panel Not Active means under 50% inhibition at 10 µM
Cytochrome P450 3A4, sequence (P08684 whole entry): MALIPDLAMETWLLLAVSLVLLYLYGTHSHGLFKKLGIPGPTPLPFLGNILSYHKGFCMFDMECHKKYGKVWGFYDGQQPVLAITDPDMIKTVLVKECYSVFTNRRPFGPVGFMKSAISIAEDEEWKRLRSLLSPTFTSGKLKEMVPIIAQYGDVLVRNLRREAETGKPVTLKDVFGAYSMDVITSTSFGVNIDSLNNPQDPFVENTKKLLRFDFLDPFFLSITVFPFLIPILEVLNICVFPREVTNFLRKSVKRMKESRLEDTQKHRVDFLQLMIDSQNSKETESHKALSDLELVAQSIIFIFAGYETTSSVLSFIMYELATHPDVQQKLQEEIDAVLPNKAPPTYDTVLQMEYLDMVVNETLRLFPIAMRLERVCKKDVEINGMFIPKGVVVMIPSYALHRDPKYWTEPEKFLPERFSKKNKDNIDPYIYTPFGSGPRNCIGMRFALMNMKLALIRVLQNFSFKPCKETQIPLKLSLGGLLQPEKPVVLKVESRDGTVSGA

[11] = DRUGMATRIX: beta-Lactamase enzyme inhibition (substrate: Nitrocefin); set-up: species or system Bacillus cereus; settings: Not Active = under 50% inhibition at 10 µM
[12] = target: T4, Alpha-2C adrenergic receptor (Homo sapiens, UniProt P18825); assay: DRUGMATRIX: Adrenergic Alpha-2C radioligand binding (ligand: [3H] MK-912); format: cell membranes, Sf9, Membrane; settings: sf9
T4 sequence (P18825 whole entry): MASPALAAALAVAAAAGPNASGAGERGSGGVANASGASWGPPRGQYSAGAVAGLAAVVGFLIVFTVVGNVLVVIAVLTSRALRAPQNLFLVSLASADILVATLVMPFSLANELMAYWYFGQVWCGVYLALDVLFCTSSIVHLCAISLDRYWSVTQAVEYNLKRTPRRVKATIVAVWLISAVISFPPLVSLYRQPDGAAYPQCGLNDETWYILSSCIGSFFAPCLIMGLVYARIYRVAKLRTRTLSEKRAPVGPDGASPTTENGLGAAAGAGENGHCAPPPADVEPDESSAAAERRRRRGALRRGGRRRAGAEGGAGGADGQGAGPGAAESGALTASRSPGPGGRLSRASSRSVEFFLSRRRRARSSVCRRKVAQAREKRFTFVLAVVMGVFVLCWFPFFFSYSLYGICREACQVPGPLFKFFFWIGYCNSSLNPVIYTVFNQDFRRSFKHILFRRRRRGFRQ

Acetylcholinesterase = Acetylcholinesterase (Homo sapiens, UniProt P22303); assay: DRUGMATRIX: Acetylcholinesterase enzyme inhibition (substrate: acetylthiocholine); format: cell-based, HEK293; settings: hek293; Not Active = under 50% inhibition at 10 µM
Acetylcholinesterase, sequence (P22303 whole entry): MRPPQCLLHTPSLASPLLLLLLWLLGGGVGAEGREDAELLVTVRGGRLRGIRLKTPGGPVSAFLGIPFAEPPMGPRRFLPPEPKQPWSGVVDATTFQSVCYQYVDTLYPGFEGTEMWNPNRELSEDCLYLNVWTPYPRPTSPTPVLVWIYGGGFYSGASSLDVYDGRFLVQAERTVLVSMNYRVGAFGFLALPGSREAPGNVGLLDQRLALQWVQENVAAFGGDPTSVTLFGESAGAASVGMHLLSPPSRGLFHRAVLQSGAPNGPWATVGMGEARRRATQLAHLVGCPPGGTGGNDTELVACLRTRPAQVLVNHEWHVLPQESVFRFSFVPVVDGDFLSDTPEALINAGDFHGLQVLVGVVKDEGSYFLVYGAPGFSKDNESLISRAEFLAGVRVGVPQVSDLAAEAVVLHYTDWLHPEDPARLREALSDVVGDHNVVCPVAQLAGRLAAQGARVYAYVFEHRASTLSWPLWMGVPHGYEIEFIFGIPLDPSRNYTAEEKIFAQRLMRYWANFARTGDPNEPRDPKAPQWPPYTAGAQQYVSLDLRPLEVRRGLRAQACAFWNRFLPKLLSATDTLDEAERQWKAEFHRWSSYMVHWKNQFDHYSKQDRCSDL

Voltage-gated inwardly rectifying potassium channel KCNH2, sequence (Q12809 whole entry): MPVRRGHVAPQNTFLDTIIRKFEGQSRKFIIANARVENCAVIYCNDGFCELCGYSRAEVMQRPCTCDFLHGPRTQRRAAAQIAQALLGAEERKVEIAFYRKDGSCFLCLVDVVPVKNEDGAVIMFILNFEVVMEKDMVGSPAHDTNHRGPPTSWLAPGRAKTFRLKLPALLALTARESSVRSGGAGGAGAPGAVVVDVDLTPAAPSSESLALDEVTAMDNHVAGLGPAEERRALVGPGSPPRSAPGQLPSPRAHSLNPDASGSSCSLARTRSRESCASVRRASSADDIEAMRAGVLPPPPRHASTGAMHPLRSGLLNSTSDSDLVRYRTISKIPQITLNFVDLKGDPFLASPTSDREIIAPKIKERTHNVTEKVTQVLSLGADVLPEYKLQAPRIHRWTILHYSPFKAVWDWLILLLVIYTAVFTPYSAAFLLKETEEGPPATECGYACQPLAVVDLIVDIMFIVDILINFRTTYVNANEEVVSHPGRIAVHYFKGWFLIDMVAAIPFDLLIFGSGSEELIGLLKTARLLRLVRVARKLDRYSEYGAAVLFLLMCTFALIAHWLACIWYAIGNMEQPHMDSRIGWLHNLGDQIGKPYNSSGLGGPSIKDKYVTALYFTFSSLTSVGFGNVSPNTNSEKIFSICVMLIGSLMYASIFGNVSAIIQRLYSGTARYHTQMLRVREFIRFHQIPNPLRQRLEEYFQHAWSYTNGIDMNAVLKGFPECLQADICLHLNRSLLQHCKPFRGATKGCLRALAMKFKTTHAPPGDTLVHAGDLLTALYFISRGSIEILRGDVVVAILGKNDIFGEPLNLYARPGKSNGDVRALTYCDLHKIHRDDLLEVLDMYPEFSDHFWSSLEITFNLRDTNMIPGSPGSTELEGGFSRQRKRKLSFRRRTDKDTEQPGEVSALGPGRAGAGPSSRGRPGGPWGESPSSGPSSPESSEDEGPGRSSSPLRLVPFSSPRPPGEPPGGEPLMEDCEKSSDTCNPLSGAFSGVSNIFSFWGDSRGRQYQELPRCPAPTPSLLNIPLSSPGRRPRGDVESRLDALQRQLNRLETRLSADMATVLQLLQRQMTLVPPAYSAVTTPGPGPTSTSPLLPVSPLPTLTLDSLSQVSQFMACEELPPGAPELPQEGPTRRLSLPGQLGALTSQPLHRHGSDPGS

Cn1cnc([N+](=O)[O-])c1Sc1ncnc2nc[nH]c12 [AZATHIOPRINE]
IC50 [1]: Not Active | Ki [1]: Not Active | IC50 (Leukotriene C4 synthase): Not Active | IC50 [2]: Not Active | Ki [2]: Not Active | IC50 [3]: Not Active | Ki [3]: Not Active | IC50 [4]: Not Active | IC50 [5]: Not Active | Ki [5]: Not Active | IC50 [6]: Not Active | IC50 [7]: Not Active | IC50 [8]: Not Active | Ki [8]: Not Active | IC50 (Vasopressin V1a receptor): Not Active | IC50 [9]: Not Active | Ki [9]: Not Active | IC50 [10]: Not Active | IC50 (Cytochrome P450 3A4): Not Active | Ki (Cytochrome P450 3A4): Not Active | IC50 [11]: Not Active | Ki [11]: Not Active | IC50 [12]: Not Active | IC50 (Acetylcholinesterase): Not Active

COC1=CC(=O)C[C@@H](C)[C@]12Oc1c(Cl)c(OC)cc(OC)c1C2=O [GRISEOFULVIN]
IC50 [1]: Not Active | Ki [1]: Not Active | IC50 (Leukotriene C4 synthase): Not Active | IC50 [2]: Not Active | Ki [2]: Not Active | IC50 [3]: Not Active | Ki [3]: Not Active | IC50 [4]: Not Active | IC50 [5]: Not Active | Ki [5]: Not Active | IC50 [6]: Not Active | IC50 [7]: Not Active | IC50 [8]: Not Active | Ki [8]: Not Active | IC50 (Vasopressin V1a receptor): Not Active | IC50 [9]: Not Active | Ki [9]: Not Active | IC50 [10]: Not Active | IC50 (Cytochrome P450 3A4): Not Active | Ki (Cytochrome P450 3A4): Not Active | IC50 [11]: Not Active | Ki [11]: Not Active | IC50 [12]: Not Active | IC50 (Acetylcholinesterase): Not Active

CN(C)CCCC1(c2ccc(F)cc2)OCc2cc(C#N)ccc21 (centres undefined) [CITALOPRAM]
IC50 (Leukotriene C4 synthase): Not Active | IC50 [2]: Not Active | Ki [2]: Not Active | IC50 [3]: Not Active | Ki [3]: Not Active | IC50 [4]: Not Active | IC50 ([5]; read-out: IC50): 1790 nM | Ki ([5]; read-out: Ki): 1590 nM | IC50 ([6]; read-out: IC50): 3290 nM | Ki ([6]; read-out: Ki): 1820 nM | IC50 [7]: Not Active | IC50 [8]: Not Active | Ki [8]: Not Active | IC50 (Vasopressin V1a receptor): Not Active | IC50 [9]: Not Active | Ki [9]: Not Active | IC50 [10]: Not Active | IC50 (Cytochrome P450 3A4): Not Active | Ki (Cytochrome P450 3A4): Not Active | IC50 [11]: Not Active | Ki [11]: Not Active | IC50 [12]: Not Active | IC50 (Acetylcholinesterase): Not Active

COc1ccc(CN(CCN(C)C)c2ccccn2)cc1 [PYRILAMINE]
IC50 (Leukotriene C4 synthase): Not Active | IC50 [2]: Not Active | Ki [2]: Not Active | IC50 [3]: Not Active | Ki [3]: Not Active | IC50 [4]: Not Active | IC50 [5]: Not Active | Ki [5]: Not Active | IC50 [6]: Not Active | IC50 [7]: Not Active | IC50 [8]: Not Active | Ki [8]: Not Active | IC50 (Vasopressin V1a receptor): Not Active | IC50 [9]: Not Active | Ki [9]: Not Active | IC50 [10]: Not Active | IC50 (Cytochrome P450 3A4): Not Active | Ki (Cytochrome P450 3A4): Not Active | IC50 [11]: Not Active | Ki [11]: Not Active | IC50 [12]: Not Active | IC50 (Acetylcholinesterase): Not Active

CC1(C)S[C@@H]2[C@H](NC(=O)[C@H](N)c3ccc(O)cc3)C(=O)N2[C@H]1C(=O)O [AMOXICILLIN]
IC50 (Leukotriene C4 synthase): Not Active | IC50 [2]: Not Active | Ki [2]: Not Active | IC50 [3]: Not Active | Ki [3]: Not Active | IC50 [4]: Not Active | IC50 [5]: Not Active | Ki [5]: Not Active | IC50 [6]: Not Active | IC50 [7]: Not Active | IC50 [8]: Not Active | Ki [8]: Not Active | IC50 (Vasopressin V1a receptor): Not Active | IC50 [9]: Not Active | Ki [9]: Not Active | IC50 [10]: Not Active | IC50 (Cytochrome P450 3A4): Not Active | Ki (Cytochrome P450 3A4): Not Active | IC50 [11]: Not Active | Ki [11]: Not Active | IC50 [12]: Not Active | IC50 (Acetylcholinesterase): Not Active

Fc1ccc([C@@H]2CCNC[C@H]2COc2ccc3c(c2)OCO3)cc1 [PAROXETINE]
IC50 (Leukotriene C4 synthase): Not Active | IC50 [2]: Not Active | Ki [2]: Not Active | IC50 ([3]; read-out: IC50): 1480 nM | Ki ([3]; read-out: Ki): 949 nM | IC50 [4]: Not Active | IC50 ([5]; read-out: IC50): 373 nM | Ki ([5]; read-out: Ki): 331 nM | IC50 [6]: Not Active | IC50 [7]: Not Active | IC50 [8]: Not Active | Ki [8]: Not Active | IC50 (Vasopressin V1a receptor): Not Active | IC50 [9]: Not Active | Ki [9]: Not Active | IC50 [10]: Not Active | IC50 (Cytochrome P450 3A4): Not Active | Ki (Cytochrome P450 3A4): Not Active | IC50 [11]: Not Active | Ki [11]: Not Active | IC50 [12]: Not Active | IC50 (Acetylcholinesterase): Not Active

Cc1c(-c2ccccc2)oc2c(C(=O)OCCN3CCCCC3)cccc2c1=O [FLAVOXATE]
IC50 (Leukotriene C4 synthase): Not Active | IC50 [2]: Not Active | Ki [2]: Not Active | IC50 [3]: Not Active | Ki [3]: Not Active | IC50 [4]: Not Active | IC50 [5]: Not Active | Ki [5]: Not Active | IC50 [6]: Not Active | IC50 [7]: Not Active | IC50 [8]: Not Active | Ki [8]: Not Active | IC50 (Vasopressin V1a receptor): Not Active | IC50 [9]: Not Active | Ki [9]: Not Active | IC50 [10]: Not Active | IC50 (Cytochrome P450 3A4): Not Active | Ki (Cytochrome P450 3A4): Not Active | IC50 [11]: Not Active | Ki [11]: Not Active | IC50 [12]: Not Active | IC50 (Acetylcholinesterase): Not Active
